PubChem BioAssay AID1919017 (Molecular Pharmacology Branch, DTP, NCI, 2023)
Several values for one entry are separate records, joined by “and”; a condition that tells them apart may be missing. Equal entries are not always repeated.

System: SW1271 complex spheroids with HUVEC/MSC, growth, % test/control
Test: Anticancer human tumor SW1271 cell line growth inhibition [AhR];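 also: spheroids exposed to agents for 7 days before readout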
Details: for viability, T/C: stronger effect = lower value
From the text: Multicellular complex tumor spheroid response to aryl hydrocarbon receptor antagonists in combination with a variety of drugs and investigational agents in selected tumor cell lines
The current study was undertaken to assess response to aryl hydrocarbon receptor antagonists in combination with standard-of-care drugs and investigational agents in solid tumor complex spheroid models. Complex spheroids include a stromal component modeled by human endothelial cells (HUVEC) and fibroblasts modeled by human mesenchymal stem cells (MSCs). The concentration ranges selected for each drug and investigational agent were based upon clinically achievable concentrations if the clinical Cmax of the agent was known.
Compounds. The drugs and investigational agents: BAY 2416964 (NSC825713), GNF351 (NSC835774), CH-223191 (NSC835775), CPI-455 (NSC825282), aza-TdCyd (NSC777586), decitabine (NSC127716), belinostat (NSC758774), entinostat (NSC756642), pevonedistat (NSC761192), tazemetostat (NSC777109), talazoparib (NSC765396), olaparib (NSC753686), selinexor (NSC780203), nedisertib (M3814, NSC802822), bortezomib (NSC756655), venetoclax (NSC766270), doxorubicin (NSC123127), elimusertib (BAY189344, NSC800525), ceralasertib (AZD6738, NSC777638), TAK-243 (NSC785004), alisertib (NSC759677), etoposide (NSC141540), topotecan (NSC609699), eribulin (NSC707389), gemcitabine (NSC613327), carboplatin (NSC241240), cisplatin (NSC119875), and SN-38 (NSC673596) were obtained from the National Cancer Institute (NCI) Developmental Therapeutics Program Chemical Repository (32). The FDA-approved anticancer drug set is available from the Developmental Therapeutics Program at https://dtp.cancer.gov/organization/dscb/obtaining/available plates.htm. […] The stock solutions were prepared in dimethyl sulfoxide (DMSO, Sigma-Aldrich, St. Louis, MO, cat. D2650), except for the platinum compounds which were prepared in saline (Quality Biological, Gaithersburg, MD, cat. 114-055-101), at 800-fold the tested concentration and stored at -70 degrees C prior to their use. All drugs and investigational agents were tested over a range starting from a high concentration at or near the clinical Cmax and decreasing in half-log increments. If the clinical Cmax for an agent had not been determined, the highest concentration tested was 10 microM (Table 1).
Cell Culture. All cells were maintained in an incubator at 37 degrees C and 5% CO2 with 95% humidity. The PDC lines were cultured according to standard operating procedures established by the NCI PDMR (https://pdmr.cancer.gov). Briefly, all PDCs were thawed and cultured in Matrigel-coated flasks prepared with a working solution of 1X Ham's F-12 nutrient mix, without supplementation (Invitrogen, Waltham, MA, cat. 11765054), 100 U/mL penicillin-streptomycin (Invitrogen, cat. 15140122), and 2.5% Matrigel (Corning Inc., Corning, NY, cat. 354248) for the first three passages. All PDCs were cultured in complete DMEM/F-12 media containing advanced DMEM/F-12 (Invitrogen, cat. 12634028), 4.9% defined fetal bovine serum, heat inactivated (HyClone Laboratories Inc., Logan, UT, cat. SH30070.03HI), 389 ng/mL hydrocortisone (Sigma-Aldrich, cat. H4001), 9.7 ng/mL human EGF recombinant protein (Invitrogen, cat. PHG0313), 23.4 microg/mL adenine (Sigma-Aldrich, cat. A2786), 97.3 U/mL penicillin-streptomycin (Invitrogen, cat. 15140122), 1.9 mM L-glutamine (Invitrogen, cat. 25030081), and 9.7 microM Y-27632 dihydrochloride (Tocris Bioscience, Bristol, United Kingdom, cat. 1254). The PDCs were cultured in complete DMEM/F12 media without 10 microM Y-27632 dihydrochloride for at least two passages prior to the screen. The established cell lines NCI-H1341 and […] were cultured in DMEM/F-12, HEPES (Invitrogen, cat. 11330032), 5% defined fetal bovine serum (HyClone Laboratories Inc., cat. SH30070.03), ITS premix universal culture supplement [insulin (5 microg/mL), transferrin (5 microg/mL), and selenious acid (5 ng/mL)] […]

Row | Compound | viability, T/C (compound 0.0316 µM) | viability, T/C (compound 0.1 µM) | viability, T/C (compound 0.316 µM) | viability, T/C (compound 1 µM) | viability, T/C (compound 3.16 µM) | viability, T/C (compound 10 µM) | IC50 (curve of compound) | further results
1 | COc1ccc([C@@H](O)c2cc(-c3ncnc4cc(N5CCOCC5)ccc34)c(F)cc2Cl)nn1 | 80.5% and 93.2% and 107% | 96.4% and 73% and 85.2% | 76.1% and 70.2% and 81% | 62.3% and 61.5% and 59.7% | 45.4% and 57% and 39.5% | 25.2% and 27.9% and 28.6% | 2180 nM and 2740 nM and 1890 nM | –
2 | COc1cccc2c1C(=O)c1c(O)c3c(c(O)c1C2=O)CC(O)(C(=O)CO)CC3OC1CC(N)C(O)C(C)O1 (configuration not stated) | 66.6% and 50.3% and 72.6% | 69.8% and 46.8% and 56.1% | 53% and 29.6% and 40.6% | 7.45% and 5.09% and 6.04% | 4.63% and 2.92% and 2.03% | 13.6% and 3.38% and 3.85% | – | –
3 | Cc1ccccc1N=Nc1ccc(NC(=O)c2ccnn2C)c(C)c1 | – | – | – | – | – | – | – | IC50 (compound alone, run of 08/22/2022): > 10000 nM
4 | Cc1cncc(-c2nc(NCCc3c[nH]c4ccccc34)c3ncn(C(C)C)c3n2)c1 | – | – | – | – | – | 46.3% [middle of 20 runs] | – | –
5 | Cn1ncnc1C1c2n[nH]c(=O)c3cc(F)cc(c23)NC1c1ccc(F)cc1 (configuration not stated) | 89.5% and 112% and 96.6% | 88.7% and 93.8% and 83.6% | – | – | – | – | > 100 nM | viability, T/C (compound 0.000316 µM): 114% and 102% and 95.2%; viability, T/C (compound 0.001 µM): 97.2% and 109% and 100%; viability, T/C (compound 0.00316 µM): 101% and 95.9% and 94%; viability, T/C (compound 0.01 µM): 106% and 105% (2×)
6 | NS(=O)(=O)OCC1CC(n2ccc3c(NC4CCc5ccccc54)ncnc32)CC1O (configuration not stated) | 151% and 137% and 133% | 143% and 152% and 145% | 120% and 101% and 89.3% | 99.3% and 103% and 71.7% | 88.6% and 93.6% and 57.3% | 77% and 86.9% and 55.2% | > 10000 nM and 8700 nM | –
7 | Nc1ccccc1NC(=O)c1ccc(CNC(=O)OCc2cccnc2)cc1 | 107% and 114% and 87.5% | 112% and 89.2% and 77% | 72.5% and 61% and 59.9% | 62.2% and 60.4% and 45.5% | 37.6% and 38.3% and 33.3% | 10.4% and 14.2% and 7.86% | 1620 nM and 1180 nM and 765 nM | –
8 | Nc1ccn(C2OC(CO)C(O)C2(F)F)c(=O)n1 (configuration not stated) | 75.2% and 49% and 67.7% | 65.6% and 48.5% and 66.2% | 69.9% and 41.9% and 48.2% | 57.6% and 44.3% and 50% | 57.8% and 50.9% and 56.9% | 64.4% and 44.9% and 47.5% | – | –
9 | Nc1ncn(C2CC(O)C(CO)O2)c(=O)n1 (configuration not stated) | 95.4% and 81.6% and 69.9% | 86.8% and 94.5% and 63.9% | 93.2% and 73.9% and 68.4% | 101% and 80.6% and 66.2% | – | – | > 1000 nM | viability, T/C (compound 0.00316 µM): 97.1% and 72.6% and 93.8%; viability, T/C (compound 0.01 µM): 107% and 124% and 97%
10 | Nc1ncn(C2CC(O)C(CO)S2)c(=O)n1 (configuration not stated) | – | – | – | – | – | – | > 300 nM | viability, T/C (compound 0.000949 µM): 87.6% and 102% and 94.9%; viability, T/C (compound 0.003 µM): 97.8% and 95.9% and 114%; viability, T/C (compound 0.00949 µM): 85.7% and 82.9% and 113%; viability, T/C (compound 0.03 µM): 94.8% and 90.3% and 103%; viability, T/C (compound 0.0949 µM): 89.2% and 85.8% and 94.6%; viability, T/C (compound 0.3 µM): 78.8% and 82.7% and 78.6%
11 | O=C(C=Cc1cccc(S(=O)(=O)Nc2ccccc2)c1)NO | 103% and 83.5% and 85.7% | 93.6% and 105% and 72.1% | 84.1% and 62.7% and 54.9% | 62.3% and 55.8% and 46.2% | 31.1% and 22.6% and 23.3% | 13.2% and 16.8% and 9.23% | 1550 nM and 963 nM and 556 nM | –
12 | O=C(C=Cn1cnc(-c2cc(C(F)(F)F)cc(C(F)(F)F)c2)n1)NNc1cnccn1 | – | – | – | – | – | – | 1660 nM and 1430 nM and 701 nM | viability, T/C (compound 0.00949 µM): 95.2% and 89.5% and 105%; viability, T/C (compound 0.03 µM): 92.7% and 78.8% and 61.8%; viability, T/C (compound 0.0949 µM): 79.7% and 88.9% and 77.8%; viability, T/C (compound 0.3 µM): 78.9% and 65.1% and 64.9%; viability, T/C (compound 0.949 µM): 55% and 57% and 44.6%; viability, T/C (compound 3 µM): 42.1% and 41.2% and 35.7%
13 | O=C(c1cc(Cc2n[nH]c(=O)c3ccccc23)ccc1F)N1CCN(C(=O)C2CC2)CC1 | 93% and 99.8% (2×) | 101% and 109% and 92.5% | 90.8% and 96.5% and 82.1% | 84.3% and 88.2% and 89.1% | 80.5% and 98.7% and 74.1% | 66% and 77.4% and 76.5% | > 10000 nM | –
